# Measurements published in PMC11129182, “Development of Inhibitors, Probes, and PROTAC Provides a Complete Toolbox to Study PARK7 in the Living Cell” (Journal of Medicinal Chemistry, 2024).
# Where two headings read alike, the source gives them in different places.
# Target: T1, PARK7 (Homo sapiens, UniProt Q99497)
# T1 sequence (Q99497 1-189): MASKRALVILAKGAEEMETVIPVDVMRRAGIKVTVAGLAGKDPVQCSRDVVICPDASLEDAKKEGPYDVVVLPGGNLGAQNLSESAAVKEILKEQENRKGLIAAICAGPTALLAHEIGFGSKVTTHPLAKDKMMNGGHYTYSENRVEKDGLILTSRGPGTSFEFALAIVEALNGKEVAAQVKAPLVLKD
# Assay: High-throughput screen of the crude compound library, PARK7 fluorescence polarization (FP) assay with FP reagent JYQ-107
# Type: biochemical
# Settings: read-out: HTS FP assay %Inhibition (1.25 µM)
# [1] = 1.25 µM, crude compound library, FP reagent JYQ-107
Structure (SMILES),inhibition at 1.25 µM [1] [%],inhibition at 1.25 µM [%]
Cc1cccc(COc2cccc(C(=O)N3CCc4nc(NC(=O)[C@@H]5CCN(C#N)C5)sc4C3)c2)c1 [compound 383],87.5,
Cn1cc(-c2cc(C(=O)N3CCc4nc(NC(=O)[C@@H]5CCN(C#N)C5)sc4C3)no2)cn1 [compound 384],83,
N#CN1CC[C@@H](C(=O)Nc2nc3c(s2)CN(C(=O)Cc2ccc(NS(=O)(=O)c4cccc(C(F)(F)F)c4)cc2)CC3)C1 [compound 385],81,
N#CN1CC[C@@H](C(=O)Nc2nc3c(s2)CN(C(=O)c2ccc(S(=O)(=O)N4CCCCCC4)cc2)CC3)C1 [compound 387],74.8,
N#CN1CC[C@@H](C(=O)Nc2nc3c(s2)CN(C(=O)c2ccccc2I)CC3)C1 [compound 391],73.6,
Cc1cc(OCC(=O)N2CCc3nc(NC(=O)[C@@H]4CCN(C#N)C4)sc3C2)ccc1C(C)C [compound 393],80.3,
COc1ccc(C)cc1C(=O)N1CCc2nc(NC(=O)[C@@H]3CCN(C#N)C3)sc2C1 [compound 395],84.8,
CC(C)(C)OC(=O)Nc1ccccc1C(=O)N1CCc2nc(NC(=O)[C@@H]3CCN(C#N)C3)sc2C1 [compound 396],65.2,
Cc1cncc(C(=O)N2CCc3nc(NC(=O)[C@@H]4CCN(C#N)C4)sc3C2)c1 [compound 397],68.5,
N#CN1CC[C@@H](C(=O)Nc2nc3c(s2)CN(C(=O)Cc2ccc([N+](=O)[O-])cc2)CC3)C1 [compound 399],58.2,
N#CN1CC[C@@H](C(=O)Nc2nc3c(s2)CN(C(=O)c2ccc(/N=N/c4ccccc4)cc2)CC3)C1 [compound 403],84.3,
Cn1c(=O)c2c(ncn2CC(=O)N2CCc3nc(NC(=O)[C@@H]4CCN(C#N)C4)sc3C2)n(C)c1=O [compound 405],67.9,
N#CN1CC[C@@H](C(=O)Nc2nc3c(s2)CN(C(=O)c2ccc(B(O)O)cc2)CC3)C1 [compound 407],58.7,
CC(C)(C)OC(=O)N[C@@H](Cc1cn(-c2ccc([N+](=O)[O-])cc2[N+](=O)[O-])cn1)C(=O)N1CCc2nc(NC(=O)[C@@H]3CCN(C#N)C3)sc2C1 [compound 409],,75.4
N#CN1CC[C@@H](C(=O)Nc2nc3c(s2)CN(C(=O)C(Br)c2ccccc2)CC3)C1 (stereo partly shown) [compound 411],41.8,
N#CN1CC[C@@H](C(=O)Nc2nc3c(s2)CN(C(=O)c2ccccc2CCc2ccccc2)CC3)C1 [compound 413],79.7,
N#CN1CC[C@@H](C(=O)Nc2nc3c(s2)CN(C(=O)c2ccc(CBr)cc2)CC3)C1 [compound 414],-19.6,
N#CN1CC[C@@H](C(=O)Nc2nc3c(s2)CN(C(=O)c2nccc4ccccc24)CC3)C1 [compound 417],82.2,
Cc1c(Br)cccc1C(=O)N1CCc2nc(NC(=O)[C@@H]3CCN(C#N)C3)sc2C1 [compound 418],81,
Cc1ccc(Br)c(C(=O)N2CCc3nc(NC(=O)[C@@H]4CCN(C#N)C4)sc3C2)c1 [compound 420],83.3,
N#CN1CC[C@@H](C(=O)Nc2nc3c(s2)CN(C(=O)c2ccc(NNC(=O)OCC4c5ccccc5-c5ccccc54)cc2)CC3)C1 [compound 422],78.9,

Structure (SMILES),inhibition at 1.25 µM [1] [%],inhibition at 1.25 µM [%]
N#CN1CC[C@@H](C(=O)Nc2nc3c(s2)CN(C(=O)Cn2cc(C=O)c4ccccc42)CC3)C1 [compound 423],,72.5
N#CN1CC[C@@H](C(=O)Nc2nc3c(s2)CN(C(=O)c2ccc(C=O)cc2)CC3)C1 [compound 424],76.8,
N#CN1CC[C@@H](C(=O)Nc2nc3c(s2)CN(C(=O)c2cccc4c2-c2ccccc2C4)CC3)C1 [compound 425],84,
CCCN(CCC)S(=O)(=O)c1ccc(C(=O)N2CCc3nc(NC(=O)[C@@H]4CCN(C#N)C4)sc3C2)cc1 [compound 428],85.1,
CN1C(=O)C[C@@H](C(=O)N2CCc3nc(NC(=O)[C@@H]4CCN(C#N)C4)sc3C2)[C@@H]1c1cccnc1 [compound 429],59.5,
N#CN1CC[C@@H](C(=O)Nc2nc3c(s2)CN(C(=O)c2ccccc2C=O)CC3)C1 [compound 432],57.9,
N#CN1CC[C@@H](C(=O)Nc2nc3c(s2)CN(C(=O)c2cccc(C=O)c2)CC3)C1 [compound 433],81.4,
CCCCNc1ccc(C(=O)N2CCc3nc(NC(=O)[C@@H]4CCN(C#N)C4)sc3C2)cc1 [compound 434],81.3,
N#CN1CC[C@@H](C(=O)Nc2nc3c(s2)CN(C(=O)CN2C(=O)c4ccccc4C2=O)CC3)C1 [compound 436],72.4,
CNc1ccc(C(=O)N2CCc3nc(NC(=O)[C@@H]4CCN(C#N)C4)sc3C2)cc1 [compound 439],73.3,
N#CN1CC[C@@H](C(=O)Nc2nc3c(s2)CN(C(=O)c2cc([N+](=O)[O-])ccc2Br)CC3)C1 [compound 441],81.4,
N#CN1CC[C@@H](C(=O)Nc2nc3c(s2)CN(C(=O)c2c(F)c(F)c(O)c(F)c2F)CC3)C1 [compound 442],51.4,
N#CN1CC[C@@H](C(=O)Nc2nc3c(s2)CN(C(=O)c2cccc(B(O)O)c2)CC3)C1 [compound 444],68.5,
N#CN1CC[C@@H](C(=O)Nc2nc3c(s2)CN(C(=O)c2ccc(F)c(F)c2)CC3)C1 [compound 446],74.4,
N#CN1CC[C@@H](C(=O)Nc2nc3c(s2)CN(C(=O)c2ccc(CNC(=O)OCC4c5ccccc5-c5ccccc54)cc2)CC3)C1 [compound 448],63.9,
CN(C)c1ccc(C(=O)N2CCc3nc(NC(=O)[C@@H]4CCN(C#N)C4)sc3C2)cc1 [compound 449],82.9,
CC(C)(C)OC(=O)N1C[C@@H](O)C[C@@H]1C(=O)N1CCc2nc(NC(=O)[C@@H]3CCN(C#N)C3)sc2C1 [compound 450],68.1,
N#CN1CC[C@@H](C(=O)Nc2nc3c(s2)CN(C(=O)c2ccc(N4CCCC4)cc2F)CC3)C1 [compound 451],82.6,
COc1ccccc1-c1cc(C(=O)N2CCc3nc(NC(=O)[C@@H]4CCN(C#N)C4)sc3C2)n[nH]1 [compound 452],84.6,
N#CN1CC[C@@H](C(=O)Nc2nc3c(s2)CN(C(=O)c2cc(-c4cccc(Cl)c4)no2)CC3)C1 [compound 453],52.8,

# More lines, main results first:
inhibition at 1.25 µM [1] [%],Structure (SMILES),inhibition at 1.25 µM [%]
-53.2,CSCCC(NC(C)=O)C(=O)N1CCc2nc(NC(=O)[C@@H]3CCN(C#N)C3)sc2C1 (stereo partly shown) [compound 388],
71.7,CC(=O)NCC(=O)N1CCc2nc(NC(=O)[C@@H]3CCN(C#N)C3)sc2C1 [compound 389],
67.9,CC(C)CC(=O)N1CCc2nc(NC(=O)[C@@H]3CCN(C#N)C3)sc2C1 [compound 390],
63,CC(C)C(=O)N1CCc2nc(NC(=O)[C@@H]3CCN(C#N)C3)sc2C1 [compound 392],
70.5,CCCC(=O)N1CCc2nc(NC(=O)[C@@H]3CCN(C#N)C3)sc2C1 [compound 394],
65.7,N#CN1CC[C@@H](C(=O)Nc2nc3c(s2)CN(C(=O)CCN2C(=O)C=CC2=O)CC3)C1 [compound 398],
80.8,N#CN1CC[C@@H](C(=O)Nc2nc3c(s2)CN(C(=O)Cc2ccccc2[N+](=O)[O-])CC3)C1 [compound 400],
82.4,C#CCCC(=O)N1CCc2nc(NC(=O)[C@@H]3CCN(C#N)C3)sc2C1 [compound 401],
85.1,N#CN1CC[C@@H](C(=O)Nc2nc3c(s2)CN(C(=O)c2cnccn2)CC3)C1 [compound 402],
58.2,N#CN1CC[C@@H](C(=O)Nc2nc3c(s2)CN(C(=O)Cc2ccncc2)CC3)C1 [compound 404],
82.4,N#CN1CC[C@@H](C(=O)Nc2nc3c(s2)CN(C(=O)CNC(=O)c2ccccc2)CC3)C1 [compound 406],
75.4,CC(C)(C)OC(=O)NCC(=O)N1CCc2nc(NC(=O)[C@@H]3CCN(C#N)C3)sc2C1 [compound 408],
47.7,N#CN1CC[C@@H](C(=O)Nc2nc3c(s2)CN(C(=O)CCCCBr)CC3)C1 [compound 410],
52.5,N#CN1CC[C@@H](C(=O)Nc2nc3c(s2)CN(C(=O)CCCCCBr)CC3)C1 [compound 412],
75.5,C#CCCCC(=O)N1CCc2nc(NC(=O)[C@@H]3CCN(C#N)C3)sc2C1 [compound 416],
74,CC(=O)CCCCC(=O)N1CCc2nc(NC(=O)[C@@H]3CCN(C#N)C3)sc2C1 [compound 419],
79.7,N#CN1CC[C@@H](C(=O)Nc2nc3c(s2)CN(C(=O)c2sccc2Br)CC3)C1 [compound 421],
63.9,N#CN1CC[C@@H](C(=O)Nc2nc3c(s2)CN(C(=O)c2cc(C=O)ccc2O)CC3)C1 [compound 427],
87.5,N#CN1CC[C@@H](C(=O)Nc2nc3c(s2)CN(C(=O)CCc2ccccc2Br)CC3)C1 [compound 430],
72.4,CC(=O)CCCC(=O)N1CCc2nc(NC(=O)[C@@H]3CCN(C#N)C3)sc2C1 [compound 431],
78.3,N#CN1CC[C@@H](C(=O)Nc2nc3c(s2)CN(C(=O)CCC2CCCCC2)CC3)C1 [compound 435],
73.6,COc1cc(CC(=O)N2CCc3nc(NC(=O)[C@@H]4CCN(C#N)C4)sc3C2)ccc1O [compound 437],
74.4,N#CN1CC[C@@H](C(=O)Nc2nc3c(s2)CN(C(=O)CCc2ccc(O)cc2)CC3)C1 [compound 438],
72.8,CC(=O)CCC(=O)N1CCc2nc(NC(=O)[C@@H]3CCN(C#N)C3)sc2C1 [compound 443],
62.7,N#CN1CC[C@@H](C(=O)Nc2nc3c(s2)CN(C(=O)CCc2cccnc2)CC3)C1 [compound 445],
68.7,CC(C)(C)OC(=O)NC1(C(=O)N2CCc3nc(NC(=O)[C@@H]4CCN(C#N)C4)sc3C2)CC1 [compound 447],
